Measured values: patent US20230167132A1, “FORMS AND COMPOSITIONS OF INHIBITORS OF PLASMA KALLIKREIN” (Takeda Pharmaceutical Company Limited, priority 2020, published 2023)
Several values for one entry are separate records, joined by “and”; a condition that tells them apart may be missing. Equal entries are not always repeated. Entries after “also recorded” stand apart in the source; their conditions may differ.

Tests used:
Type in all cases: physicochemical
[1] = Storage for one week at 40° C./75% RH and 25° C./97% RH, XRPD; settings: for stability under storage: summary of scaled-up solid forms, conditions not restated
[2] = Gravimetric vapour sorption (GVS) analysis; settings: for XRPD post GVS analysis: change of solid form after GVS; for GVS hygroscopicity: classification in words
[3] = Competitive slurry / thermodynamic stability of solid forms; settings: competitive slurries at 5 and 50° C. in selected solvents, XRPD
Protocol: To these, 40 vol (1 mL) selected solvents was added and the material slurried at 5° C. or 50° C. for 72 hours on a HEL polyblock (500 rpm stirring). Solids were subsequently isolated by filtration and dried under suction prior to analysis by XRPD. In all but one experiment, Form 1 was the sole detectable phase by XRPD obtained after 72 hours.
These were mixed, and then aliquots (20 mg) of this mixture were dispensed into HPLC vials and 90 vol (1.8 mL) selected solvents added. Samples were slurried using a Polar Bear with 500 rpm magnetic stirring at 5 and 50° C. After 24 hours, aliquots were removed and analysed by XRPD. Experiment numbers: 01-10.
120 mg of both Compound 6 Pattern 1 and Compound 6 Pattern 4 were dispensed into a 20 mL vial. These were mixed, and then aliquots (20 mg) of this mixture was dispensed into HPLC vials and 90 vol selected solvents were added. Samples were slurried using a Polar Bear with 500 rpm magnetic stirring. Aliquots were removed after four days and analyzed by XRPD.

[4] = Intrinsic Dissolution Rate (IDR), Sirius inForm; settings: for IDR Sector 1 average (pH 2.0) / IDR Sector 1 pH 2.0: pH 2.0, 37° C.; for IDR Sector 1 pH 2.0: individual runs; for sector 1 IDR compared to free base form Compound 1 Form 1 / other forms: pH 2.0, comparison in words; for XRPD Analysis Post Dissolution: solid form of disc after IDR analysis
Protocol: About 40 mg of the sample was compressed in a 6 mm disc recess, under 100 kg for 2 minutes, with greaseproof paper on the compression base, to form nondisintegrating discs. The discs were then plugged with a bung so that only one surface was exposed to the media during analysis and transferred to the Sirius inForm dissolution apparatus. Analysis was performed at 37° C. in 40 mL media (36 mL ISA water, 4 mL 0.1 M Acetate Phosphate Buffer). Dissolution data were collected over 4 pH sectors (pH 2.0, 5.5, 6.5, and 7.4) for a total of 2 hours—30 minutes per sector, with UV spectra collected every 30 seconds. A stir speed of 225 rpm was used with a 10 mm path length probe. The IDR was calculated based on the surface area of the 3/6/8 mm disc recess used (28.3 mm2 surface area). XRPD analysis was performed on all samples, both after compression of the material into the disc recess, and post dissolution analysis to observe any change in form. XRPD diffractograms were collected on the Bruker C2.

[5] = one week (7 days), scaled-up / characterised material
[6] = one week, material isolated from salt/cocrystal screening experiments
[7] = one week (7 days), scaled-up / characterised material, listed as Form 2

| SMILES | Storage 25° C./97% RH, XRPD [1, 5] | Storage 40° C./75% RH, XRPD [1, 5] | Storage 40° C./75% RH, XRPD [1, 6] | GVS mass increase ([2]; between 0 and 90% RH) [%] | XRPD post GVS analysis [2] | GVS hygroscopicity [2] | IDR Sector 1 average (pH 2.0) [4] [μg/min/cm^2] | sector 1 IDR compared to free base form Compound 1 Form 1 / other forms [4] | XRPD Analysis Post Dissolution [4] | also measured |
| --- | --- | --- | --- | --- | --- | --- | --- | --- | --- | --- |
| O=C(NCc1ncn2ccc(Cl)c(F)c12)c1cn(Cc2cn3cc(C4CC4)ccc3n2)nn1.O=C(O)C(=O)O [Compound 6 Pattern 1] | unchanged by XRPD | unchanged by XRPD | slightly changed | 0.6 | no observed change | slightly hygroscopic | 866.8 | increased sector 1 IDR |  | thermodynamic stability relative to other solid forms ([3]; listed as Oxalate Pattern 1): Less thermodynamically stable; IDR Sector 1 average (pH 2.0) ([4]; listed as Oxalate Pattern 1): 866.8 μg/min/cm^2; IDR Sector 1 pH 2.0 ([4]; listed as Oxalate Pattern 1): 895.9 μg/min/cm^2 and 837.7 μg/min/cm^2; XRPD Analysis Post Dissolution ([4]; listed as Oxalate Pattern 1): Partial conversion to Compound 1 |
| O=C(NCc1ncn2ccc(Cl)c(F)c12)c1cn(Cc2cn3cc(C4CC4)ccc3n2)nn1.O=C(O)C(=O)O [Compound 6 Pattern 4] | unchanged by XRPD | unchanged by XRPD |  |  | unchanged | slightly hygroscopic |  | increased sector 1 IDR |  | GVS mass loss ([2]; between 0 and 90% RH): 0.66%; thermodynamic stability relative to other solid forms [3]: more thermodynamically stable of the two solvent-free oxalate salts; also recorded: more thermodynamically stable than Compound 6 Pattern 1; thermodynamic stability relative to other solid forms ([3]; listed as Oxalate Pattern 4): More thermodynamically stable; IDR Sector 1 average (pH 2.0) ([4]; listed as Oxalate Pattern 4): 674.7 μg/min/cm^2; IDR Sector 1 pH 2.0 ([4]; listed as Oxalate Pattern 4): 692.8 μg/min/cm^2 and 656.6 μg/min/cm^2; XRPD Analysis Post Dissolution ([4]; listed as Oxalate Pattern 4): Partial conversion to Compound 1 |
| O=C(NCc1ncn2ccc(Cl)c(F)c12)c1cn(Cc2cn3cc(C4CC4)ccc3n2)nn1 [Compound 1 Form 1, N-((7-chloro-8-fluoroimidazo[1,5-a]pyridin-1-yl)methyl)-1-((6-cyclopropylimidazo[1,2-a]pyridin-2-yl)methyl)-1H-1,2,3-triazole-4-carboxamide] | Compound 1 Form 1 | Compound 1 Form 1 |  |  | Material unchanged by XRPD post GVS | slightly hygroscopic | 104.8 |  | No change | GVS increase in mass ([2]; RH range not given): 0.5%; thermodynamic stability relative to other solid forms [3]: more thermodynamically stable than Compound 1 Form 3; thermodynamic stability relative to other solid forms ([3]; listed as Form 1): more thermodynamically stable than Form 2; also recorded: more thermodynamically stable polymorph; also recorded: polymorph most stable to typical storage and process conditions; IDR Sector 1 pH 2.0 [4]: 104.3 μg/min/cm^2 and 105.2 μg/min/cm^2 |
| O=C(NCc1ncn2ccc(Cl)c(F)c12)c1cn(Cc2cn3cc(C4CC4)ccc3n2)nn1.O=C(O)C[C@H](O)C(=O)O [Compound 3] | unchanged by XRPD | unchanged by XRPD | Slight changes | 0.22 | no observed change |  | 1791 |  |  | stability under storage [1]: stable under storage; GVS hygroscopicity ([2]; listed as Compound 3 Pattern 1): slightly hygroscopic; GVS hygroscopicity ([2]; listed as L-malate): reduced hygroscopicity; IDR Sector 1 pH 2.0 ([4]; listed as L-malate Pattern 1): 1569 μg/min/cm^2 and 2013 μg/min/cm^2; sector 1 IDR compared to free base form Compound 1 Form 1 / other forms ([4]; listed as Compound 3 Form 1): highest IDR; sector 1 IDR compared to free base form Compound 1 Form 1 / other forms ([4]; listed as Compound 3 Pattern 1): increased sector 1 IDR; XRPD Analysis Post Dissolution ([4]; listed as Compound 3 Pattern 1): additional peaks observed in XRPD; XRPD Analysis Post Dissolution ([4]; listed as L-malate Pattern 1): Additional peaks observed |
| O=C(NCc1ncn2ccc(Cl)c(F)c12)c1cn(Cc2cn3cc(C4CC4)ccc3n2)nn1.O=C(O)C(O)C(O)C(=O)O [Compound 7] | unchanged by XRPD | unchanged by XRPD | unchanged | 3.4 | No observed change |  | 656.4 |  | poorly crystalline post analysis | GVS hygroscopicity ([2]; listed as Compound 7 Pattern 1): hygroscopic; GVS hygroscopicity ([2]; listed as L-Tartrate Pattern 1): Poorly crystalline, hygroscopic; GVS hygroscopicity ([2]; listed as L-tartrate): hygroscopic; IDR Sector 1 pH 2.0 ([4]; listed as L-Tartrate Pattern 1): 647.0 μg/min/cm^2 and 665.7 μg/min/cm^2 |
| O=C(NCc1ncn2ccc(Cl)c(F)c12)c1cn(Cc2cn3cc(C4CC4)ccc3n2)nn1.O=C(O)CCC(=O)O [Compound 4] | unchanged by XRPD | unchanged by XRPD | unchanged | 0.16 | no observed change |  | 255.5 | increased sector 1 IDR |  | stability under storage [1]: stable under storage; GVS hygroscopicity ([2]; listed as Compound 4 Pattern 1): non-hygroscopic; GVS hygroscopicity ([2]; listed as succinate): reduced hygroscopicity; IDR Sector 1 pH 2.0 ([4]; listed as Succinate Pattern 1): 270.8 μg/min/cm^2 and 240.1 μg/min/cm^2; XRPD Analysis Post Dissolution ([4]; listed as Compound 4 Pattern 1): additional peaks observed in XRPD; XRPD Analysis Post Dissolution ([4]; listed as Succinate Pattern 1): Additional peaks observed |
| O=C(NCc1ncn2ccc(Cl)c(F)c12)c1cn(Cc2cn3cc(C4CC4)ccc3n2)nn1 [Compound 1 Form 2, N-((7-chloro-8-fluoroimidazo[1,5-a]pyridin-1-yl)methyl)-1-((6-cyclopropylimidazo[1,2-a]pyridin-2-yl)methyl)-1H-1,2,3-triazole-4-carboxamide] | Mixture of Compound 1 - Form 1, Compound 1 - | Free base, Compound 1 - Form 1 |  |  | decrease. Mixture of Freebase Patterns 2 & 3 | Hygroscopic | 290.8 |  | Conversion to Compound 1 - Form 1 | Storage 25° C./97% RH, XRPD [1, 7]: Peaks corresponding to a suspected hydrated phase; Storage 40° C./75% RH, XRPD [1, 7]: convert to Form 1; GVS increase in mass ([2]; between 80 and 90% RH): 4%; XRPD post GVS analysis ([2]; listed as Form 2): convert to Form 1 |
